Results: patent US20260226031A1, “NOVEL COMPOUNDS” (NRG THERAPEUTICS LTD., priority 2023, published 2026)

Assays:
[1] = tested on: mPTP; assay: mPTP activity (Ca2+ retention) assay in isolated rat brain mitochondria; type: biochemical; details: isolated rat brain mitochondria; Fluo5N fluorescence at 10 min after Ca2+ (75 μM) bolus
Procedure: MPTP activity was measured in brain mitochondria freshly isolated from female Sprague Dawley (250 to 300 gram) rats. Anaesthetised rats were perfused in-situ with ~40 ml cold Dulbecco's Phosphate Buffered Saline (DPBS), then brains dissected and transferred into 30 ml Isolation Buffer (225 mM mannitol, 75 mM sucrose, 1 mM EGTA, adjusted to pH 7.4 with 1M NaOH). The brain was minced using tweezers and a scalpel into ~5 mm pieces then transferred into a 50 ml Potterton Dounce homogenization tube on ice containing 10 ml ice-cold isolation buffer (as above with addition of Complete Protease inhibitor; 1 tablet per 50 ml buffer). Homogenisation was carried out using a Teflon® pestle at 1800 rpm. The slurry was centrifuged at 2000 g for 10 min at 4° C., then the supernatant centrifuged at 12,000 g for 9 min. The pellet was resuspended with a dounce homogeniser in isolation buffer as above but with the addition of 0.02% digitonin, centrifuged at 12,000 g for 11 min and finally resuspended in 5 ml modified isolation buffer (as above but with EGTA reduced to 0.1 mM).
Test compounds were prepared in 384 well polypropylene assay plates as described above for the liver mitochondria assay. A stock mitochondria/Fluo5N assay solution was prepared in 5.6 ml assay buffer (120 mM mannitol, 40 mM MOPS, 5 mM KH2PO4, 60 mM KCl, 10 mM pyruvate, 2 mM malate, 2 mM MgCl2, 20 μM ADP, 1.26 μM oligomycin A, adjusted to pH 7.4) supplemented with Fluo5N pentapotassium salt (2 μM) and 1 ml mitochondria suspension, then transferred (15 μl) into the assay plate containing test compounds and incubated for 10 min at RT. Assay plates were then transferred to a FLIPR Tetra plate reader (Molecular Devices). Dye fluorescence was then measured every 3 sec for a total of 10 min.

[2] = tested on: mPTP; assay: mPTP activity (Ca2+ retention) assay in isolated rat liver mitochondria; type: biochemical; details: isolated rat liver mitochondria; Fluo5N fluorescence at 10 min after CaCl2 (75 μM) bolus; DMSO 0%, 5 μM cyclosporin A 100% inhibition
Excerpt: Pharmacological inhibition or modulation of the mPTP can be measured in well characterised ‘Ca^2+ retention’ assays performed in isolated mitochondria. In vitro, isolated mitochondria rapidly sequester exogenous Ca^2+ until the intramitochondrial Ca^2+ concentration reaches the threshold for mPTP activation. Once the pore is activated, mitochondrial integrity is compromised and the stored Ca^2+ is released. The distribution of Ca^2+ between extra- and intra-mitochondrial compartments can be measured in real time with the use of membrane-impermeant Ca^2+ sensitive fluorescent dyes. Depending on the configuration of the assay, inhibition or modulation of the mPTP either delays the opening of the pore or increases the concentration of Ca^2+ required to induce mPTP opening.
MPTP activity was measured in mitochondria freshly isolated from female Sprague Dawley (250 to 300 gram) rat livers using the following method. Cervical dislocation was performed on the rat. The liver was then perfused in-situ with ~40 ml cold Dulbecco's Phosphate Buffered Saline (DPBS) prior to dissection and transferred into 30 ml Isolation Buffer (250 mM Sucrose, 10 mM KCl, 1 mM EGTA, 1 mM EDTA, 25 mM HEPES, adjusted to pH 7.5 with 1M NaOH). Each lobe of the liver was then removed from the buffer, minced using tweezers and a scalpel into ~5 mm pieces then transferred into a 50 ml Potterton dounce homogenization tube on ice containing 30 ml ice-cold centrifugation buffer (300 mM Trehalose, 25 mM HEPES, 1 mM EGTA, 1 mM EDTA, 10 mM KCl, adjusted to pH 7.5 with 1M NaOH and supplemented with 0.1% bovine serum albumin (BSA) and complete protease inhibitor cocktail (one tablet of inhibitor per 50 mls of buffer). Homogenisation was carried out using a Teflon® pestle at 1800 rpm. The slurry was centrifuged at 800 g for 10 min at 4° C., then the supernatant centrifuged at 10,000 g for 10 min. The pellet was washed once with FLIPR assay buffer (75 mM Mannitol, 25 mM Sucrose, 5 mM Potassium Phosphate Monobasic, 20 mM Tris base, 100 mM KCl, 0.1% BSA adjusted to pH 7.4 with 5M HCl) centrifuged again, then resuspended in FLIPR assay buffer to a concentration of 8.8 mg/ml protein.
Tested compounds (10 mM stock in DMSO) were serially diluted in DMSO in half log steps to generate 10 test concentrations (final concentrations in assay 30 μM to 1 nM). An intermediate dilution of 5 μl DMSO samples into 247 μl FLIPR assay buffer was carried out prior to transfer of 5 μl into duplicate wells of a 384 well polypropylene assay plate. Control wells were 0.5% (v/v) DMSO and 5 μM cyclosporin A.
A stock mitochondria/Fluo5N assay solution was prepared in 5.6 ml FLIPR assay buffer (at RT) supplemented with succinate disodium salt (10 mM), rotenone (1 μM), Fluo5N pentapotassium salt (2 μM) and 1 ml mitochondria suspension, then transferred (15 μl) into the assay plate containing test compounds and incubated for 10 min at RT. Assay plates were processed for fluorescence detection on either a FLIPR Tetra (Molecular Devices) or CLARIOstar (BMG) plate reader. For kinetic fluorescence detection on the FLIPR, dye fluorescence was measured every 3 sec for a total of 10 min. After 12 sec, a 2.5 μl bolus of CaCl2 (75 μM) was added from a source plate containing 675 μM CaCl2 in FLIPR assay buffer. Alternatively, the 2.5 μl addition of CaCl2 was performed using a Viaflow 384, plates were incubated at RT for 10 min, and dye fluorescence measured after 10 min on the CLARIOstar plate reader. pIC50 values for tested compounds were calculated using the fluorescence value collected at the 10 min timepoint on either plate reader, with % inhibition calculated using the DMSO control and cyclosporin A values as 0 and 100% respectively.

| Structure (SMILES) | mPTP Rat brain pIC50 [1] | mPTP Rat liver pIC50* [2] |
| --- | --- | --- |
| O=C(c1nccc(=O)[nH]1)N1CC(c2ccccc2)C2(CCC2)C1 (racemic) [Example 18, rac-2-{8-phenyl-6-azaspiro[3.4]octane-6-carbonyl}-3H-pyrimidin-4-one] | 6.56 | 5.52 |
| O=C(c1cncc(O)c1)N1CC(c2ccccc2)C2(CCC2)C1 (single isomer, unassigned) [Example 1b, (5-hydroxypyridin-3-yl)(8-phenyl-6-azaspiro[3.4]octan-6-yl)methanone] | 6.94 | 6.01 |
| O=C(c1cncc(O)c1)N1CC(c2ccccc2)C2(CCC2)C1 (single isomer, unassigned) [Example 1c, (5-hydroxypyridin-3-yl)(8-phenyl-6-azaspiro[3.4]octan-6-yl)methanone] |  | <4.52 |
| Cn1nc(C(=O)N2C[C@@H](c3ccccc3)C3(CCC3)C2)[nH]c1=O (single isomer, unassigned) [Example 5b] | 6.55 | 5.33 |
| Cn1nc(C(=O)N2C[C@H](c3ccccc3)C3(CCC3)C2)[nH]c1=O (single isomer, unassigned) [Example 5c] | <4.52 | <4.52 |
| O=C(c1cncc(O)n1)N1CC(c2ccccc2)C2(CCC2)C1 (single isomer, unassigned) [Example 6a, (6-hydroxypyrazin-2-yl)(8-phenyl-6-azaspiro[3.4]octan-6-yl)methanone] | 7.34 | 6.39 |
| O=C(c1cncc(O)n1)N1CC(c2ccccc2)C2(CCC2)C1 (single isomer, unassigned) [Example 6b, (6-hydroxypyrazin-2-yl)(8-phenyl-6-azaspiro[3.4]octan-6-yl)methanone] | <4.52 | 4.59 |
| CC1(C)CN(C(=O)c2cncc(=O)[nH]2)CC1c1ccccc1 (single isomer, unassigned) [Example 10a, 6-(3,3-dimethyl-4-phenylpyrrolidine-1-carbonyl)pyrazin-2(1H)-one] | 7.03 | 6.18 |
| CC1(C)CN(C(=O)c2cncc(=O)[nH]2)CC1c1ccccc1 (single isomer, unassigned) [Example 10b, 6-(3,3-dimethyl-4-phenylpyrrolidine-1-carbonyl)pyrazin-2(1H)-one] | 6.07 | 5.19 |
| O=C(c1cnn[nH]1)N1CC(c2ccccc2)C2(CCC2)C1 (single isomer, unassigned) [Example 14a, 8-Phenyl-6-(3H-1,2,3-triazole-4-carbonyl)-6-azaspiro[3.4]octane] | 5.21 | 5.23 |
| O=C(c1cnn[nH]1)N1CC(c2ccccc2)C2(CCC2)C1 (single isomer, unassigned) [Example 14b, 8-phenyl-6-(3H-1,2,3-triazole-4-carbonyl)-6-azaspiro[3.4]octane] |  | <4.52 |
| CCC1CN(C(=O)c2cncc(=O)[nH]2)CC1c1ccccc1 (single isomer, unassigned) [Example 15a, 6-(3-ethyl-4-phenylpyrrolidine-1-carbonyl)pyrazin-2(1H)-one] | 6.1 | 5.27 |
| CCC1CN(C(=O)c2cncc(=O)[nH]2)CC1c1ccccc1 (single isomer, unassigned) [Example 15b, 6-(3-ethyl-4-phenylpyrrolidine-1-carbonyl)pyrazin-2(1H)-one] | 4.81 | <4.52 |
| CCC1CN(C(=O)c2cncc(=O)[nH]2)CC1c1ccccc1 (single isomer, unassigned) [Example 15c, 6-(3-ethyl-4-phenylpyrrolidine-1-carbonyl)pyrazin-2(1H)-one] | 5.93 | 5.24 |
| CCC1CN(C(=O)c2cncc(=O)[nH]2)CC1c1ccccc1 (single isomer, unassigned) [Example 15d, 6-(3-ethyl-4-phenylpyrrolidine-1-carbonyl)pyrazin-2(1H)-one] | <4.52 | <4.52 |
| O=C(c1cncc(=O)[nH]1)N1CC(c2ccc(Cl)cc2)C2(CCC2)C1 (single isomer, unassigned) [Example 16a, 6-[8-(4-Chlorophenyl)-6-azaspiro[3.4]octane-6-carbonyl]-1H-pyrazin-2-one] | 6.39 | 5.58 |
| O=C(c1noc(=O)[nH]1)N1CC(c2cccc(F)c2)C2(CCC2)C1 (single isomer, unassigned) [Example 49a, 3-(8-(3-fluorophenyl)-6-azaspiro[3.4]octane-6-carbonyl)-1,2,4-oxadiazol-5(4H)-one] |  | 6.52 |
| O=C(c1noc(=O)[nH]1)N1CC(c2cccc(F)c2)C2(CCC2)C1 (single isomer, unassigned) [Example 49b, 3-(8-(3-fluorophenyl)-6-azaspiro[3.4]octane-6-carbonyl)-1,2,4-oxadiazol-5(4H)-one] | <4.52 |  |
| O=C(c1cc(O)ccn1)N1CC(c2ccccc2)C2(CCC2)C1 (stereo not drawn) [Example 3, (4-hydroxypyridin-2-yl)(8-phenyl-6-azaspiro[3.4]octan-6-yl)methanone] |  | 5.14 |
| Cn1nc(C(=O)N2CC(c3ccccc3)C3(CCC3)C2)[nH]c1=O (stereo not drawn) [Example 5a, 2-methyl-5-(8-phenyl-6-azaspiro[3.4]octane-6-carbonyl)-2,4-dihydro-3H-1,2,4-triazol-3-one] |  | 5.04 |
| O=C(c1cncc(=O)[nH]1)N1CC2(CCC2)C1c1ccccc1 (stereo not drawn) [Example 12, 6-(1-phenyl-2-azaspiro[3.3]heptane-2-carbonyl)pyrazin-2(1H)-one] |  | <4.52 |
| CC1CN(C(=O)c2cncc(=O)[nH]2)CC1c1ccccc1 (stereo not drawn) [Example 13, 6-(3-methyl-4-phenylpyrrolidine-1-carbonyl)pyrazin-2(1H)-one] |  | 4.55 |
